Measured values from patent US20140094465A1, “Compounds as S-Nitrosoglutathione Reductase Inhibitors” (N30 PHARMACEUTICALS, INC., priority 2011, published 2014).

Tests used:
[1] = tested on: dextran sodium sulfate (DSS)-induced IBD; assay: Acute prophylactic model of DSS-induced IBD; format: in vivo, mouse; details: for decrease of percent of mice with severe colon injury scores via histopathology / decrease of percent of mice with severe colon injury scores via endoscopy: prophylactic
From the text: Acute and chronic models of dextran sodium sulfate (DSS)-induced IBD in mice were used to explore efficacy of GSNORi against this disease. Acute and chronic DSS-induced IBD are widely used and well characterized models that induce pathological changes in the colon similar to those observed in the human disease. In these models and in human disease, epithelial cells within the crypts of the colon are disrupted, leading to dysfunction of the epithelial barrier and the ensuing tissue inflammation, edema, and ulceration. GSNORi therapy may benefit IBD by restoring s-nitrosoglutathione (GSNO) levels, and thus prevent or reverse the epithelial barrier dysfunction. Experimental IBD was induced by administration of DSS in the drinking water of male C57Bl/6 mice (N=8 to 10 mice per group) for 6 consecutive days. GSNORi was dosed orally at doses of 0.1 to 10 mg/kg/day for 10 days starting two days prior to and continuing two days post DSS exposure. […] Levels of circulating cytokines involved in inflammatory pathways were also assessed. The effect of GSNORi was compared to vehicle treated controls. […] Naïve mice (N=5) were also assessed as a normal tissue control.

[2] = Mouse pharmacokinetic (PK) study; format: in vivo; details: male, BALB/c, plasma, po, 10 mg/kg, male BALB/c mice, 2 mg/kg IV, 10 mg/kg PO, read-out: oral bioavailability (% F)
From the text: The mouse was used to determine the pharmacokinetics of compounds of the invention. This species is widely used to assess the bioavailability of compounds by administering both oral (PO) and intravenous (IV) test articles. Efficacy of the compounds of the invention was compared by assessing plasma exposure in male BALB/c mice either via IV or PO administration at the times of peak activity.
Compounds of the invention were reconstituted in a phosphate buffered saline (PBS)/10% Solutol (HS 15) clear solution resulting in a concentration of 0.2 mg/mL and administered to mice (2 mg/kg) as a single IV dose. Animals were dosed via the lateral tail vein. Blood samples were collected at designated time points (0.083, 0.25, 0.5, 1, 2, 4, 8, 16, 24 hours) by cardiac puncture under isoflurane anesthesia (up to 1 mL blood per animal). The blood was collected into tubes containing Li-Heparin. The blood samples were kept on ice until centrifugation within approximately 30 minutes of collection. The plasma was transferred into labeled polypropylene tubes and frozen at −70° C. until analyzed by LC/MS/MS.
The compounds of the invention were reconstituted in 40% Propylene Glycol/40% Propylene Carbonate/20% of a 5% Sucrose clear solution resulting in a concentration of 2 mg/mL and administered to mice (10 mg/kg) as a single oral dose via gavage. Blood samples were collected at 0.25, 0.5, 1, 2, 4, 8, 12, 16, 20 and 24 hours post dose by cardiac puncture under isoflurane anesthesia. The blood was collected in tubes containing Li-Heparin. The blood samples were kept on ice until centrifugation within approximately 30 minutes of collection. The plasma was transferred into labeled polypropylene tubes and frozen at −70° C. until analyzed by LC/MS/MS.
Plasma samples at each timepoint were analyzed using a LC-MS/MS with a lower limit of quantification (LLOQ) of 1 ng/mL. Plasma was analyzed to determine the amount of the compound of the invention in each sample and regression curves generated for each compounds of the invention in the relevant matrixes.
WinNonlin analysis was used for calculating PK parameters for both the IV and PO administrations:
PK parameters for IV portion—AUClast; AUCINF; T1/2; Cl; Vss; Cmax; MRT
PK parameters for PO portion—AUClast; AUCINF; T1/2; Cmax; Cl, MRT.
In addition to the above PK parameters, bioavailability (% F) was calculated.

| bioavailability [2] | Structure (SMILES) | decrease of percent of mice with severe colon injury scores via histopathology ([1]; oral 10 mg/kg/day for 10 days) | decrease of percent of mice with severe colon injury scores via endoscopy ([1]; oral 10 mg/kg/day for 10 days) | decrease of percent of mice with severe colon injury scores via pathology ([1]; oral 0.1 mg/kg/day for 10 days) | decrease of percent of mice with severe colon injury scores via endoscopy ([1]; oral 0.1 mg/kg/day for 10 days) | decrease of percent of mice with severe colon injury scores via endoscopy ([1]; oral 1 mg/kg/day for 10 days) | decrease of percent of mice with severe colon injury scores via histopathology ([1]; oral 1 mg/kg/day for 10 days) |
| --- | --- | --- | --- | --- | --- | --- | --- |
| > 9% | O=c1c(-c2ccc(-c3nnn[nH]3)cc2)c(C(F)(F)F)oc2cc(O)ccc12 [IV-23] | 17 % of vehicle control | 75 % of vehicle control | – | – | – | – |
| > 9% | O=c1[nH]c(-c2ccc(-c3c(C(F)(F)F)oc4cc(O)ccc4c3=O)cc2)no1 [IV-31] | – | – | – | – | – | – |
| > 9% | O=c1c2ccc(O)cc2oc(C(F)(F)F)c1[C@H]1CC[C@H](C(=O)O)CC1 [IV-25] | – | – | 12 % of vehicle control | 38 % of vehicle control | 25 % of vehicle control | 33 % of vehicle control |
| > 9% | O=C(O)c1ccc(-c2c(C(F)(F)F)oc3cc(O)ccc3c2=O)c(F)c1 [IV-38] | 15 % of vehicle control | 58 % of vehicle control | – | – | – | – |

| Structure (SMILES) | bioavailability [2] | decrease of percent of mice with severe colon injury scores via histopathology ([1]; oral 10 mg/kg/day for 10 days) | decrease of percent of mice with severe colon injury scores via endoscopy ([1]; oral 10 mg/kg/day for 10 days) | decrease of percent of mice with severe colon injury scores via pathology ([1]; oral 0.1 mg/kg/day for 10 days) | decrease of percent of mice with severe colon injury scores via endoscopy ([1]; oral 0.1 mg/kg/day for 10 days) | decrease of percent of mice with severe colon injury scores via endoscopy ([1]; oral 1 mg/kg/day for 10 days) | decrease of percent of mice with severe colon injury scores via histopathology ([1]; oral 1 mg/kg/day for 10 days) |
| --- | --- | --- | --- | --- | --- | --- | --- |
| O=C(O)c1ccc(-c2ccc3cc(O)ccc3c2)c(F)c1 [III-2] | > 9% | 26 % of vehicle control | – | – | – | – | – |
